21 molecules from patent US8629168B2, “Benzoxazoles and oxazolopyridines being useful as janus kinases inhibitors” (priority 2006, dated 2014) can be followed below.

The structures appear in SMILES notation. Some results are limits rather than exact numbers.

T1 sequence (O60674 808-1132): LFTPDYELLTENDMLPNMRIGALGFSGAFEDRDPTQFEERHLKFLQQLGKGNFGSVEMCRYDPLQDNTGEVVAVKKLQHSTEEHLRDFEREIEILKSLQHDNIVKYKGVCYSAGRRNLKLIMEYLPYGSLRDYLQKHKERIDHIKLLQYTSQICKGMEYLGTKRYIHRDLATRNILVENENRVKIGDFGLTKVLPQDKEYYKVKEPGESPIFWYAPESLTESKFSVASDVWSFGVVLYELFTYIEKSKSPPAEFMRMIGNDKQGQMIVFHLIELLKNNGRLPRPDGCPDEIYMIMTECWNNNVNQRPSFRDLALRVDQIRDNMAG

The assay has as its target T1, GST-JAK2(808-1132) (Homo sapiens, UniProt O60674).
T1 construct: GST-JAK2(808-1132) is purchased from Invitrogen; purchased Invitrogen (Carlsbad, USA) #4288
Kind of assay: EPK JAK/TYK-kinase family profiling assay (Caliper mobility shift), JAK2. The following applies: Caliper mobility shift assay of Example 187, 20 μM ATP, read-out: IC50 with Test in present Example. Type of assay: biochemical. The source says: All four kinases of the JAK/TYK-kinase family are used as purified recombinant GST-fusion proteins, containing the active kinase domains. GST-JAK1(866-1154), GST-JAK3(811-1124), and GST-TYK2(888-1187) are expressed and purified by affinity chromatography. GST-JAK2(808-1132) is purchased from Invitrogen (Carlsbad, USA, #4288).
The kinase assays are based on the Caliper mobility shift assay using the LabChip 3000 systems. This technology is similar to capillary electrophoresis and uses charge driven separation of substrate and product in a microfluidic chip.
All kinase reactions are performed in 384 well microtiter plates in a total reaction volume of 18 μl. The assay plates are prepared with 0.1 μl per well of test compound in the appropriate test concentration, as described under the section “preparation of compound dilutions”. The reactions are started by combining 9 μl of substrate mix (consisting of peptide and ATP) with 9 μl of kinase dilution. The reactions are incubated for 60 minutes at 30° C. and stopped by adding 70 μl of stop buffer (100 mM Hepes, 5% DMSO, 0.1% Coating reagent, 10 mM EDTA, 0.015% Brij 35).
Fluorescently labeled synthetic peptides are used as substrates in all reactions. […] Specific assay conditions are described in Table 1:
The terminated reactions are transferred to a Caliper LabChip 3000 reader (Caliper Life Sciences, Mountain View, Calif., USA) and the turnover of each reaction is measured by determining the substrate/product ratio.
Test compounds are dissolved in DMSO (10 mM) and transferred into 1.4 mL flat bottom or V-shaped Matrix tubes carrying a unique 2D matrix chip by individual compound hubs. The numbers of these chips are distinctively linked to the individual compound identification numbers. The stock solutions are stored at −20° C. if not used immediately. For the test procedure the vials are defrosted and identified by a scanner whereby a working sheet is generated that guides the subsequent working steps.
Compound dilutions are made in 96 well plates. This format enabled the assay of maximally 40 individual test compounds at 8 concentrations (single points) including 4 reference compounds. The dilution protocol includes the production of pre-dilution plates, master plates and assay plates:
Pre-dilution plates: 96 polypropylene well plates are used as pre-dilution plates. A total of 4 pre-dilution plates are prepared including 10 test compounds each on the plate positions A1-A10, one standard compound at A11 and one DMSO control at A12. All dilution steps are done on a Hamilton STAR robot (Hamilton, Co., Reno, Nev., USA).
Master plates: 100 μL of individual compound dilutions including standard compound and controls of the 4 “pre-dilution plates” are transferred into a 384 “master plate” including the following concentrations 1,820, […], 182, 54.6, 18.2, 5.46, 1.82 and 0.546 μM, respectively in 90% of DMSO.
Assay plates: Identical assay plates are then prepared by pipetting 100 nL each of compound dilutions of the master plates into 384-well “assay plates”. In the following the compounds are mixed with 9 μL of assays components plus 9 μL enzyme corresponding to a 1:181 dilution steps enabling the final concentration of 10, 3.0, 1.0, 0.3, 0.1, 0.03, 0.01 and 0.003 μM, respectively. The preparation of the master plates are handled by the Matrix PlateMate Plus robot (Thermo Fisher Scientific, Handforth, Cheshire, United Kingdom) and replication of assay plates by the HummingBird robot (Genomic Solutions, Inc., Ann Arbor, Mich., USA).
By IC50 is commonly meant the concentration that gives 50% inhibition. As to `CCN1CCN(c2ccc(Nc3nc4cccc(-c5ccc(CN6CCS(=O)(=O)CC6)c(F)c5)c4o3)cc2C)CC1` [Example 88, {7-[4-(1,1-Dioxo-1lambda*6*-thiomorpholin-4-ylmethyl)-3-fluoro-phenyl]-benzooxazol-2-yl}-[4-(4-ethyl-piperazin-1-yl)-3-methyl-phenyl]-amine], the IC50 was < 0.003 µM.

For the molecule `CN1CCN(c2ccc(Nc3nc4cccc(-c5ccc(CN6CCS(=O)(=O)CC6)cc5)c4o3)cc2)CC1` [Example 89, {7-[4-(1,1-Dioxo-1lambda*6*-thiomorpholin-4-ylmethyl)-phenyl]-benzooxazol-2-yl}-[4-(4-methyl-piperazin-1-yl)-phenyl]-amine], the IC50 amounted to 0.06 µM.

In the case of `CN1CCN(c2ccc(Nc3nc4cccc(-c5ccc(C(=O)N6CCOCC6)c(F)c5)c4o3)cc2C#N)CC1` [Example 90, 5-{7-[3-Fluoro-4-(morpholine-4-caronyl)-phenyl]-benzooxazol-2-ylamino}-2-(4-methyl-piperazin-1-yl)-benzonitrile], the IC50 was found to be 0.0565 µM.

In the case of `O=C(c1ccc(-c2cccc3nc(Nc4ccc(N5CCNCC5)cc4)oc23)cc1F)N1CCOCC1` [Example 91, {2-Fluoro-4-[2-(4-piperazin-1-yl-phenylamino)-benzooxazol-7-yl]-phenyl}-morpholin-4-yl-methanone], the IC50 came out at 0.064 µM.

Regarding `CCN1CCN(c2ccc(Nc3nc4cccc(-c5ccc(S(C)(=O)=O)cc5)c4o3)cc2C)CC1` [Example 92, [4-(4-Ethyl-piperazin-1-yl)-3-methyl-phenyl]-[7-(4-methanesulfonyl-phenyl)-benzooxazol-2-yl]-amine], the IC50 was determined as 0.0101 µM.

With `CN1CCN(c2ccc(Nc3nc4cccc(-c5ccc(S(N)(=O)=O)cc5)c4o3)cc2)CC1` [Example 93, 4-{2-[4-(4-Methyl-piperazin-1-yl)-phenylamino]-benzooxazol-7-yl}-benzenesulfonamide], the IC50 was 0.052 µM.

As for `CCN1CCN(c2ccc(Nc3nc4cccc(-c5ccc(C(=O)N6CCOCC6)c(F)c5)c4o3)cc2C)CC1` [Example 94, (4-{2-[4-(4-Ethyl-piperazin-1-yl)-3-methyl-phenylamino]-benzooxazol-7-yl}-2-fluoro-phenyl)-morpholin-4-yl-methanone], the IC50 is 0.0069 µM.

As for `CN1CCN(c2ccc(Nc3nc4cccc(-c5cc(F)c(CN6CCS(=O)(=O)CC6)c(F)c5)c4o3)cc2)CC1` [Example 95, {7-[4-(1,1-Dioxo-1lambda*6*-thiomorpholin-4-ylmethyl)-3,5-difluoro-phenyl]-benzooxazol-2-yl}-[4-(4-methyl-piperazin-1-yl)-phenyl]-amine], the IC50 is 0.00685 µM.

Turning to `Cc1cc(Nc2nc3cccc(-c4cc(F)c(CN5CCS(=O)(=O)CC5)c(F)c4)c3o2)ccc1C(=O)N1CCCC1` [Example 96, (4-{7-[4-(1,1-Dioxo-1lambda*6*-thiomorpholin-4-ylmethyl)-3,5-difluoro-phenyl]-benzooxazol-2-ylamino}-2-methyl-phenyl)-pyrrolidin-1-yl-methanone], the IC50 was 0.00435 µM.

For `Cc1cc(-c2cccc3nc(Nc4ccc(N5CCN(C6CC6)CC5)cc4)oc23)ccc1C(=O)N1CCOCC1` [Example 97, (4-{2-[4-(4-Cyclopropyl-piperazin-1-yl)-phenylamino]-benzooxazol-7-yl}-2-methyl-phenyl)-morpholin-4-yl-methanone], the IC50 is 0.0215 µM.

On to `CCN1CCN(c2ccc(Nc3nc4cccc(-c5cc(F)c(CN6CCOCC6)c(F)c5)c4o3)cc2C)CC1` [Example 98, [7-(3,5-Difluoro-4-morpholin-4-ylmethyl-phenyl)-benzooxazol-2-yl]-[4-(4-ethyl-piperazin-1-yl)-3-methyl-phenyl]-amine], for which the IC50 is 0.0052 µM.

`Cc1cc(Nc2nc3cccc(-c4cc(F)c(CN5CCOCC5)c(F)c4)c3o2)ccc1C(=O)N1CCCC1` [Example 99, {4-[7-(3,5-Difluoro-4-morpholin-4-ylmethyl-phenyl)-benzooxazol-2-ylamino]-2-methyl-phenyl}-pyrrolidin-1-yl-methanone]: the IC50 was 0.0192 µM.

`Cc1cc(Nc2nc3cccc(-c4ccc(S(C)(=O)=O)cc4)c3o2)ccc1N1CCN(CCN(C)C)CC1` [Example 100, {4-[4-(2-Dimethylamino-ethyl)-piperazin-1-yl]-3-methyl-phenyl}-[7-(4-methanesulfonyl-phenyl)-benzooxazol-2-yl]-amine]: the IC50 was 0.0165 µM.

Take `Cc1cc(Nc2nc3cccc(-c4cc(F)c(CN5CCS(=O)(=O)CC5)c(F)c4)c3o2)ccc1N1CCN(C(C)C)CC1` [Example 101, {7-[4-(1,1-Dioxo-1lambda*6*-thiomorpholin-4-ylmethyl)-3,5-difluoro-phenyl]-benzooxazol-2-yl}-[4-(4-isopropyl-piperazin-1-yl)-3-methyl-phenyl]-amine]: the IC50 was 0.0036 µM.

In the case of `Cc1cc(-c2cccc3nc(Nc4ccc(N5CCN(CCN(C)C)CC5)c(C)c4)oc23)ccc1C(=O)N1CCOCC1` [Example 102, [4-(2-{4-[4-(2-Dimethylamino-ethyl)-piperazin-1-yl]-3-methyl-phenylamino}-benzooxazol-7-yl)-2-methyl-phenyl]-morpholin-4-yl-methanone], the IC50 amounted to 0.00565 µM.

On to `CCN(CC)C(=O)c1ccc(Nc2nc3cccc(-c4cc(F)c(CN5CCOCC5)c(F)c4)c3o2)cc1C` [Example 103, 4-[7-(3,5-Difluoro-4-morpholin-4-ylmethyl-phenyl)-benzooxazol-2-ylamino]-N,N-diethyl-2-methyl-benzamide], for which the half-inhibitory concentration (IC50) was 0.014 µM.

For `CCN1CCN(C(=O)c2ccc(Nc3nc4cccc(-c5cc(F)c(CN6CCOCC6)c(F)c5)c4o3)cc2C)CC1` [Example 104, {4-[7-(3,5-Difluoro-4-morpholin-4-ylmethyl-phenyl)-benzooxazol-2-ylamino]-2-methyl-phenyl}-(4-ethyl-piperazin-1-yl)-methanone], the IC50 was 0.015 µM.

For the molecule `Cc1cc(Nc2nc3cccc(-c4ccc(S(C)(=O)=O)cc4)c3o2)ccc1N1CCN(C(C)C)CC1` [Example 105, [4-(4-Isopropyl-piperazin-1-yl)-3-methyl-phenyl]-[7-(4-methanesulfonyl-phenyl)-benzooxazol-2-yl]-amine], the IC50 was found to be 0.02 µM.

On to `Cc1cc(-c2cccc3nc(Nc4ccc(N5CCN(C(C)C)CC5)c(C)c4)oc23)ccc1C(=O)N1CCOCC1` [Example 106, (4-{2-[4-(4-Isopropyl-piperazin-1-yl)-3-methyl-phenylamino]-benzooxazol-7-yl}-2-methyl-phenyl)-morpholin-4-yl-methanone], for which the IC50 stood at 0.00615 µM.

In the case of `Cc1cc(Nc2nc3cccc(-c4cc(F)c(CN5CCS(=O)(=O)CC5)c(F)c4)c3o2)ccc1N1CCN(CCN(C)C)CC1` [Example 107, {4-[4-(2-Dimethylamino-ethyl)-piperazin-1-yl]-3-methyl-phenyl}-{7-[4-(1,1-dioxo-1lambda*6*-thiomorpholin-4-ylmethyl)-3,5-difluoro-phenyl]-benzooxazol-2-yl}-amine], the IC50 was determined as 0.0043 µM.

Regarding `COCCN1CCN(c2ccc(Nc3nc4cccc(-c5cc(F)c(CN6CCS(=O)(=O)CC6)c(F)c5)c4o3)cc2C)CC1` [Example 108, {7-[4-(1,1-Dioxo-1lambda*6*-thiomorpholin-4-ylmethyl)-3,5-difluoro-phenyl]-benzooxazol-2-yl}-{4-[4-(2-methoxy-ethyl)-piperazin-1-yl]-3-methyl-phenyl}-amine], the IC50 amounted to 0.0103 µM.
